# Key:
# Details in all cases: Compound concentration 1000.0 nM
# [1] = molecular target: Phosphatidylinositol 4-kinase beta (Homo sapiens) (UniProt Q9UBF8)
# [2] = molecular target: Megakaryocyte-associated tyrosine-protein kinase (Homo sapiens) (UniProt P42679)
# [3] = tested on: Epidermal growth factor receptor (Homo sapiens), P00533 [UNDEFINED MUTATION]
# [4] = molecular target: Serine/threonine-protein kinase MRCK gamma (Homo sapiens) (UniProt Q6DT37)
# [5] = molecular target: Activin receptor type-1 (Homo sapiens) (UniProt Q04771)
# [6] = molecular target: Transient receptor potential cation channel subfamily M member 6 (Homo sapiens) (UniProt Q9BX84)
# [7] = tested on: Receptor-type tyrosine-protein kinase FLT3 (Homo sapiens), P36888 [UNDEFINED MUTATION]
# [8] = molecular target: Dual specificity mitogen-activated protein kinase kinase 3 (Homo sapiens) (UniProt P46734)
# [9] = molecular target: Serine/threonine-protein kinase LATS1 (Homo sapiens) (UniProt O95835)
# [10] = tested on: Epidermal growth factor receptor (Homo sapiens), P00533 [G719S]
# [11] = molecular target: Mitogen-activated protein kinase 9 (Homo sapiens) (UniProt P45984)
# [12] = molecular target: Macrophage colony-stimulating factor 1 receptor (Homo sapiens) (UniProt P07333)
# [13] = molecular target: Serine/threonine-protein kinase PLK3 (Homo sapiens) (UniProt Q9H4B4)
# [14] = molecular target: TRAF2 and NCK-interacting protein kinase (Homo sapiens) (UniProt Q9UKE5)
# [15] = molecular target: Ribosomal protein S6 kinase alpha-6 (Homo sapiens) (UniProt Q9UK32)
# [16] = molecular target: Ribosomal protein S6 kinase alpha-5 (Homo sapiens) (UniProt O75582)
# [17] = molecular target: Cyclin-dependent kinase 9 (Homo sapiens) (UniProt P50750)
# [18] = molecular target: Tyrosine-protein kinase ABL1 (Homo sapiens) (UniProt P00519)
# [19] = molecular target: Dual serine/threonine and tyrosine protein kinase (Homo sapiens) (UniProt Q6XUX3)
# [20] = molecular target: Serine/threonine-protein kinase TBK1 (Homo sapiens) (UniProt Q9UHD2)
# [21] = tested on: Tyrosine-protein kinase ABL1 (Homo sapiens), P00519 [T315I]
# [22] = molecular target: Receptor-interacting serine/threonine-protein kinase 4 (Homo sapiens) (UniProt P57078)
# [23] = tested on: Receptor-type tyrosine-protein kinase FLT3 (Homo sapiens), P36888 [UNDEFINED MUTATION]; remark: listed apart in the source
# [24] = molecular target: NUAK family SNF1-like kinase 1 (Homo sapiens) (UniProt O60285)
# [25] = molecular target: RAF proto-oncogene serine/threonine-protein kinase (Homo sapiens) (UniProt P04049)
# [26] = molecular target: Testis-specific serine/threonine-protein kinase 3 (Homo sapiens) (UniProt Q96PN8)
# [27] = tested on: Tyrosine-protein kinase ABL1 (Homo sapiens), P00519 [H396P]
# [28] = molecular target: Ephrin type-A receptor 3 (Homo sapiens) (UniProt P29320)
# [29] = molecular target: Serine/threonine-protein kinase tousled-like 1 (Homo sapiens) (UniProt Q9UKI8)
# [30] = molecular target: Interferon-induced, double-stranded RNA-activated protein kinase (Homo sapiens) (UniProt P19525)
# [31] = molecular target: Tyrosine-protein kinase Fer (Homo sapiens) (UniProt P16591)
# [32] = tested on: Proto-oncogene tyrosine-protein kinase receptor Ret (Homo sapiens), P07949 [M918T]
# [33] = molecular target: Proto-oncogene tyrosine-protein kinase receptor Ret (Homo sapiens) (UniProt P07949)
# [34] = tested on: Receptor-type tyrosine-protein kinase FLT3 (Homo sapiens), P36888 [K663Q]
# [35] = molecular target: Dual specificity tyrosine-phosphorylation-regulated kinase 1B (Homo sapiens) (UniProt Q9Y463)
# [36] = molecular target: Atypical kinase COQ8B, mitochondrial (Homo sapiens) (UniProt Q96D53)
# [37] = molecular target: Serine/threonine-protein kinase WNK4 (Homo sapiens) (UniProt Q96J92)
# [38] = tested on: Hepatocyte growth factor receptor (Homo sapiens), P08581 [M1250T]
# [39] = molecular target: RAC-alpha serine/threonine-protein kinase (Homo sapiens) (UniProt P31749)
# [40] = molecular target: Serine/threonine-protein kinase SIK3 (Homo sapiens) (UniProt Q9Y2K2)
# [41] = molecular target: Ribosomal protein S6 kinase alpha-2 (Homo sapiens) (UniProt Q15349)
# [42] = molecular target: Serine/threonine-protein kinase DCLK2 (Homo sapiens) (UniProt Q8N568)
# [43] = molecular target: Serine/threonine-protein kinase Nek4 (Homo sapiens) (UniProt P51957)
# [44] = molecular target: Phosphatidylinositol 4-phosphate 5-kinase type-1 alpha (Homo sapiens) (UniProt Q99755)
# Sequence of RAC-alpha serine/threonine-protein kinase (Homo sapiens) (P31749 whole entry): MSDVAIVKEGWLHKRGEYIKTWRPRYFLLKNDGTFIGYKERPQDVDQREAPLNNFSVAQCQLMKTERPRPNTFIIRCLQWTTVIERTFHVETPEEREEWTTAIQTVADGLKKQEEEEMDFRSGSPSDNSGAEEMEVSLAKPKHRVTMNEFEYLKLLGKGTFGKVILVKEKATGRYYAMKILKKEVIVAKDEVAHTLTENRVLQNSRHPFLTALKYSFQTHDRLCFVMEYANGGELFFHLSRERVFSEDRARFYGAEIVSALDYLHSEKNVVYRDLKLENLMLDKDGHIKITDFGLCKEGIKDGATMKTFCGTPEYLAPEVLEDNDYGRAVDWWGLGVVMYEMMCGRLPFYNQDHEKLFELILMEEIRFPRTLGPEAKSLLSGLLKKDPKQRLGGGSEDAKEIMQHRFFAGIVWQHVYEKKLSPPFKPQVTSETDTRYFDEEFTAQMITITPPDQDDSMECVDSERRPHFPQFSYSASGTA
# Sequence of Ephrin type-A receptor 3 (Homo sapiens) (P29320 whole entry): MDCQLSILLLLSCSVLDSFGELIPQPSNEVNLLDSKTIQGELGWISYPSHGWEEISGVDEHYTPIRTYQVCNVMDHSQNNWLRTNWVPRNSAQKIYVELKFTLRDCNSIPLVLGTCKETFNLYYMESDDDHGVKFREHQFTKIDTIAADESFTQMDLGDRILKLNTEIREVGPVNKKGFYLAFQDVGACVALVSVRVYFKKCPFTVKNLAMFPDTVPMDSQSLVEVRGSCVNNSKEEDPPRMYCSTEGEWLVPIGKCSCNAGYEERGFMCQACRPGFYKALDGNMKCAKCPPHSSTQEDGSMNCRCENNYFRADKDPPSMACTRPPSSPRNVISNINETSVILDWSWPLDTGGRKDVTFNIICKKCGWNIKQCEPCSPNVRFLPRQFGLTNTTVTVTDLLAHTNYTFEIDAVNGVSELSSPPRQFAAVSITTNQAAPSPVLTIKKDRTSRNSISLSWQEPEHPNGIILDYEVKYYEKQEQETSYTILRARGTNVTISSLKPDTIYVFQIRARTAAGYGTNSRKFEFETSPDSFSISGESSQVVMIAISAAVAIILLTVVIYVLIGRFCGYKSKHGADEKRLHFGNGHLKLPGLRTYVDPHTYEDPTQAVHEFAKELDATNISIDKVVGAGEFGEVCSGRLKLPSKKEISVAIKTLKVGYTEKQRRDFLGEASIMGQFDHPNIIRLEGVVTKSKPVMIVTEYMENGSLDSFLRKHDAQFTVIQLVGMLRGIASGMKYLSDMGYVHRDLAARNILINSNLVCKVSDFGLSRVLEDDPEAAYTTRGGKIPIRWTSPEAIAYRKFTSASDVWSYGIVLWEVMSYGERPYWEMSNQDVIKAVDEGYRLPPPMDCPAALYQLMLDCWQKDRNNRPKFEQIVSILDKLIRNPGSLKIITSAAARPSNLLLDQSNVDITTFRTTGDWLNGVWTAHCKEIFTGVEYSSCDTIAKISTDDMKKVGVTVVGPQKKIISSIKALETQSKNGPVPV
# Sequence of Serine/threonine-protein kinase WNK4 (Homo sapiens) (Q96J92 whole entry): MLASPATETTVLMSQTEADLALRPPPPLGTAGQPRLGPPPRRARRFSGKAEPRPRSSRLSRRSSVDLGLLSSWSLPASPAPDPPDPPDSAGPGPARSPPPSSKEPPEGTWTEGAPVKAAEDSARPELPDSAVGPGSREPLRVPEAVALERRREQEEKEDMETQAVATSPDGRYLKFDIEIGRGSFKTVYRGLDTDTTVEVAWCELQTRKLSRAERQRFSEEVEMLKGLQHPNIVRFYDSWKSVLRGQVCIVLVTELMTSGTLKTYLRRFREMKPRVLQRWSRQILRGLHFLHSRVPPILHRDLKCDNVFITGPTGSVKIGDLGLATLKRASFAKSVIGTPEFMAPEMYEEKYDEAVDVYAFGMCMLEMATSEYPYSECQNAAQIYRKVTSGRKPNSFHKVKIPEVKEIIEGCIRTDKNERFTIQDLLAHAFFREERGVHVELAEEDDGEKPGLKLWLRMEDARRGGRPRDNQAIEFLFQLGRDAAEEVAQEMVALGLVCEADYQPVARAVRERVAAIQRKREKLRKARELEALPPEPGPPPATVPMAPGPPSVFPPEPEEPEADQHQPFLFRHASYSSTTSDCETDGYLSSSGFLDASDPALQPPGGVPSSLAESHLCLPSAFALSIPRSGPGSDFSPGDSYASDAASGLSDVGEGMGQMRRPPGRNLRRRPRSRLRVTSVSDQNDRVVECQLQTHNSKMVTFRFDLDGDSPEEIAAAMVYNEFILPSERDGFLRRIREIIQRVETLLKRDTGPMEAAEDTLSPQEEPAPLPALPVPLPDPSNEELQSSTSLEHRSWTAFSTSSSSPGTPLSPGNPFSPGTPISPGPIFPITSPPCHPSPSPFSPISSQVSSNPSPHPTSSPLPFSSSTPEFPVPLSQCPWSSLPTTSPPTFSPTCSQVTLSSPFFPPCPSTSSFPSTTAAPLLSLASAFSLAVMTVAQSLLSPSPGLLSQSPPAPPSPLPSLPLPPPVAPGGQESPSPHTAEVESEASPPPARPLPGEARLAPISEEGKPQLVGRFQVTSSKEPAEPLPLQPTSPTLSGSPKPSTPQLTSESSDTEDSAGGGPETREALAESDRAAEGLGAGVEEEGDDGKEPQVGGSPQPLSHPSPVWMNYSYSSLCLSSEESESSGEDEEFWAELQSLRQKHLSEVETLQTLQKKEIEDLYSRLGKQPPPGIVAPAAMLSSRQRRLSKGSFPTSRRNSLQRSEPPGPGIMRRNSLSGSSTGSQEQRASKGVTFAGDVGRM
# Sequence of Phosphatidylinositol 4-kinase beta (Homo sapiens) (Q9UBF8 2-816 limits assumed): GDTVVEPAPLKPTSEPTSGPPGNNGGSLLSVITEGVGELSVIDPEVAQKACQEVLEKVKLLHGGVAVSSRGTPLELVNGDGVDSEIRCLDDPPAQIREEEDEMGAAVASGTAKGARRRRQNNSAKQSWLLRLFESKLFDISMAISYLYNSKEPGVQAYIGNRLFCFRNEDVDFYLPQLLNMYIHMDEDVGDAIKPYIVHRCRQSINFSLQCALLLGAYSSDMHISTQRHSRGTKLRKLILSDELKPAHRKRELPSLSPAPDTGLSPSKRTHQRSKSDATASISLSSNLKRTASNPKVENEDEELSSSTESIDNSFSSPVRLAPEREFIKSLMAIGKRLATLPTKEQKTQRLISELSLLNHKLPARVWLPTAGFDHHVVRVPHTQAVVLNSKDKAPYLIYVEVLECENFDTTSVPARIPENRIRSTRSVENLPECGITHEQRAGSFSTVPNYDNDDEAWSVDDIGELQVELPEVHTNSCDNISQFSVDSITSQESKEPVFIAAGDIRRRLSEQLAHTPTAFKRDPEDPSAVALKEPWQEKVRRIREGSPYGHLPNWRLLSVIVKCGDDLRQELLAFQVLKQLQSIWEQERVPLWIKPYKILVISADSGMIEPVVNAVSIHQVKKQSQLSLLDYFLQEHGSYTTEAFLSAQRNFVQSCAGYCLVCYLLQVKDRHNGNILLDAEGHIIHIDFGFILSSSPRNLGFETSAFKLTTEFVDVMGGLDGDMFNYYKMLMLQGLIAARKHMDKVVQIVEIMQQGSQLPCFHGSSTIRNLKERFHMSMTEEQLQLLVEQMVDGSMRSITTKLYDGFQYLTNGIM
# Sequence of Serine/threonine-protein kinase tousled-like 1 (Homo sapiens) (Q9UKI8 whole entry): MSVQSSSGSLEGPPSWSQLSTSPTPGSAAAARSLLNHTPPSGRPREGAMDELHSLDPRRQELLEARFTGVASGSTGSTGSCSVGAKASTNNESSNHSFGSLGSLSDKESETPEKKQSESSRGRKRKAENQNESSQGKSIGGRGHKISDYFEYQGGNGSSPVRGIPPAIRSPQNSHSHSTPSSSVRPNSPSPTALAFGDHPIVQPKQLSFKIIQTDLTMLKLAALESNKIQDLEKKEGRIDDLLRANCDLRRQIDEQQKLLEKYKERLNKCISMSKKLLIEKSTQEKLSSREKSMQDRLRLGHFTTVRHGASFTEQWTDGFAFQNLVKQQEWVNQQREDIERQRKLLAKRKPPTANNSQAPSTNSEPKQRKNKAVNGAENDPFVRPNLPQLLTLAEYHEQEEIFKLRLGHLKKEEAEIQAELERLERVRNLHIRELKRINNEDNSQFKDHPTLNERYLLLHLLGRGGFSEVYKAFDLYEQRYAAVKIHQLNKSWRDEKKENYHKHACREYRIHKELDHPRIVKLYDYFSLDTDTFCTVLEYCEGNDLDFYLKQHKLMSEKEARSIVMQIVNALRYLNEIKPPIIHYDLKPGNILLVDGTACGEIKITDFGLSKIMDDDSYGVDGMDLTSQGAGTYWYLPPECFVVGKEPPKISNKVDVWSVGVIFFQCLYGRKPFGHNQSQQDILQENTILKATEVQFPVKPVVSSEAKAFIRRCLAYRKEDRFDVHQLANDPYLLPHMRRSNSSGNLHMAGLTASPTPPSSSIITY
# Sequence of Dual specificity mitogen-activated protein kinase kinase 3 (Homo sapiens) (P46734 whole entry): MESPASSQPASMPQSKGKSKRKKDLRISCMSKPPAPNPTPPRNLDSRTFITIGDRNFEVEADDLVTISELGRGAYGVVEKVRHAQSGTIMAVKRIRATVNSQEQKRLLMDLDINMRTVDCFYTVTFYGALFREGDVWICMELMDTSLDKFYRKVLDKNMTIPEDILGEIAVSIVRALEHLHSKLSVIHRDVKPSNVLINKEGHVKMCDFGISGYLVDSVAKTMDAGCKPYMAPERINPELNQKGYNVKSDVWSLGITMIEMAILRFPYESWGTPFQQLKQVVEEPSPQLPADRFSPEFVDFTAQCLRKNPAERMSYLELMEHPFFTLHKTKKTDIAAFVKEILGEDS
# Sequence of Testis-specific serine/threonine-protein kinase 3 (Homo sapiens) (Q96PN8 whole entry): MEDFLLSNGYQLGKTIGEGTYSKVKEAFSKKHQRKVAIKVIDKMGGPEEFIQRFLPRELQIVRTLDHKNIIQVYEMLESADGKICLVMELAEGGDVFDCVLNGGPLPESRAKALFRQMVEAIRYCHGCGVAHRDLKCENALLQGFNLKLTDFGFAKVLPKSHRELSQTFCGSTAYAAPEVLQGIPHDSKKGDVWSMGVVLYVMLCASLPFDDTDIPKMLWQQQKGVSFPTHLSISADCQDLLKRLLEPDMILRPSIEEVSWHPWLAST
compound,measurement,setting,value
CSc1cccnc1N1CCN(Cc2nc3ccccc3[nH]2)CC1 [A-769],residual activity,[1],73%
same,residual activity,[2],45%
same,residual activity,[3],100%
same,residual activity,[4],100%
same,residual activity,[5],100%
same,residual activity,[6],100%
same,residual activity,[7],73%
same,residual activity,[8],100%
same,residual activity,[9],100%
same,residual activity,[10],98%
same,residual activity,[11],68%
same,residual activity,[12],100%
same,residual activity,[13],80%
same,residual activity,[14],100%
same,residual activity,[15],94%
same,residual activity,[16],100%
same,residual activity,[17],97%
same,residual activity,[18],70%
same,residual activity,[19],76%
same,residual activity,[20],100%
same,residual activity,[21],93%
same,residual activity,[22],66%
same,residual activity,[23],100%
same,residual activity,[24],100%
same,residual activity,[25],91%
same,residual activity,[26],98%
same,residual activity,[27],77%
same,residual activity,[28],100%
same,residual activity,[29],100%
same,residual activity,[30],100%
same,residual activity,[31],100%
same,residual activity,[32],99%
same,residual activity,[33],94%
same,residual activity,[34],93%
same,residual activity,[35],91%
same,residual activity,[36],100%
same,residual activity,[37],91%
same,residual activity,[38],98%
same,residual activity,[39],100%
same,residual activity,[40],100%
same,residual activity,[41],100%
same,residual activity,[42],100%
same,residual activity,[43],88%
same,residual activity,[44],96%
c1ccc(N2CCN(Cc3nc4ccccc4[nH]3)CC2)nc1 [ABT-724],residual activity,[1],100%
same,residual activity,[2],100%
same,residual activity,[3],100%
same,residual activity,[4],100%
same,residual activity,[5],100%
same,residual activity,[6],100%
same,residual activity,[7],100%
same,residual activity,[8],96%
same,residual activity,[9],100%
same,residual activity,[10],91%
same,residual activity,[11],100%
same,residual activity,[12],98%
same,residual activity,[13],100%
same,residual activity,[14],100%
same,residual activity,[15],100%
same,residual activity,[16],100%
same,residual activity,[17],100%
same,residual activity,[18],80%
same,residual activity,[19],100%
same,residual activity,[20],77%
same,residual activity,[21],100%
same,residual activity,[22],100%
same,residual activity,[23],100%
same,residual activity,[24],89%
same,residual activity,[25],100%
same,residual activity,[26],92%
same,residual activity,[27],100%
same,residual activity,[28],100%
same,residual activity,[29],95%
same,residual activity,[30],100%
same,residual activity,[31],100%
same,residual activity,[32],100%
same,residual activity,[33],100%
same,residual activity,[34],100%
same,residual activity,[35],100%
same,residual activity,[36],100%
same,residual activity,[37],100%
same,residual activity,[38],100%
same,residual activity,[39],90%
same,residual activity,[40],91%
same,residual activity,[41],100%
same,residual activity,[42],98%
same,residual activity,[43],100%
same,residual activity,[44],79%

# Reference: ChEMBL document CHEMBL4507260 (2021)
